Experimental data as given in ChEMBL document CHEMBL4004823, “Discovery of Potent and Selective Inhibitors for G9a-Like Protein (GLP) Lysine Methyltransferase” (J Med Chem, 2017).

Experiments:
[1] = target: T1, Histone-lysine N-methyltransferase EHMT1 (Homo sapiens, UniProt Q9H9B1); assay: Binding affinity to recombinant GLP catalytic SET domain (982 to 1266 residues) (unknown origin) expressed in Escherichia coli BL21 (DE3) codon plus RIL in presence of SAM by isothermal titration calorimetry
T1 sequence (Q9H9B1 whole entry): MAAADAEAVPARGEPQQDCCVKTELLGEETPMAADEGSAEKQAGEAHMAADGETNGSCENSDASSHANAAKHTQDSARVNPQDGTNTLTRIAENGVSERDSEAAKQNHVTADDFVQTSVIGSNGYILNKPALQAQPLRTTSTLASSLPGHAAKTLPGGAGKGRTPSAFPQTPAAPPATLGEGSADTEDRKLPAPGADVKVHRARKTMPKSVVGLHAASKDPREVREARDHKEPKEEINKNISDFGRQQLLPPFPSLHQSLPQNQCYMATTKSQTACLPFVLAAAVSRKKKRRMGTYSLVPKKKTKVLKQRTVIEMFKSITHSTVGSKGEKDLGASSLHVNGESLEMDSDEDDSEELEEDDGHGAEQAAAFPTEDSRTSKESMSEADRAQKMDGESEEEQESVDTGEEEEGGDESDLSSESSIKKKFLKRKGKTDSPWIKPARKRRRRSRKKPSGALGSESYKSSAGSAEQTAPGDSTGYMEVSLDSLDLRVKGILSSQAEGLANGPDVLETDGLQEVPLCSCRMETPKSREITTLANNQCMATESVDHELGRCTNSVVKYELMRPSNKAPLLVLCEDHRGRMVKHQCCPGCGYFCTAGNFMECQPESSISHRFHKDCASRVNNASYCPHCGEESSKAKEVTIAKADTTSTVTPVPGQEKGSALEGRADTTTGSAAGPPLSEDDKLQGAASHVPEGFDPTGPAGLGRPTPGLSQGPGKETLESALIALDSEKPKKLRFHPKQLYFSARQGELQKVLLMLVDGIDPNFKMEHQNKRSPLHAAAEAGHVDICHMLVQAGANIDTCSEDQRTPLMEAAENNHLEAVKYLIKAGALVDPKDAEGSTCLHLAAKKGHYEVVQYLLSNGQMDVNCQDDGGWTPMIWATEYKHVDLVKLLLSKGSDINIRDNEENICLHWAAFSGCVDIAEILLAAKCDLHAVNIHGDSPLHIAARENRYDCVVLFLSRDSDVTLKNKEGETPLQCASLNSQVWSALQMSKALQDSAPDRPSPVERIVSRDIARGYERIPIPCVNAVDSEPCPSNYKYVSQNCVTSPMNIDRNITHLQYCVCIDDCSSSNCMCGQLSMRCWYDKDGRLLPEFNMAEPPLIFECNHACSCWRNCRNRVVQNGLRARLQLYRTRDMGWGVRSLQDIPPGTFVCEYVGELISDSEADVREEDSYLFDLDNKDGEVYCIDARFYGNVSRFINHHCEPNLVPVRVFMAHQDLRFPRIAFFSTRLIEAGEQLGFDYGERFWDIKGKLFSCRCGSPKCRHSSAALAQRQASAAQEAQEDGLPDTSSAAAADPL

[2] = target: T2, Histone-lysine N-methyltransferase EHMT2 (Homo sapiens, UniProt Q96KQ7); assay: Binding affinity to recombinant G9a catalytic SET domain (913 to 1193 residues) (unknown origin) expressed in Escherichia coli BL21 (DE3) codon plus RIL in presence of SAM by isothermal titration calorimetry
T2 sequence (Q96KQ7 whole entry): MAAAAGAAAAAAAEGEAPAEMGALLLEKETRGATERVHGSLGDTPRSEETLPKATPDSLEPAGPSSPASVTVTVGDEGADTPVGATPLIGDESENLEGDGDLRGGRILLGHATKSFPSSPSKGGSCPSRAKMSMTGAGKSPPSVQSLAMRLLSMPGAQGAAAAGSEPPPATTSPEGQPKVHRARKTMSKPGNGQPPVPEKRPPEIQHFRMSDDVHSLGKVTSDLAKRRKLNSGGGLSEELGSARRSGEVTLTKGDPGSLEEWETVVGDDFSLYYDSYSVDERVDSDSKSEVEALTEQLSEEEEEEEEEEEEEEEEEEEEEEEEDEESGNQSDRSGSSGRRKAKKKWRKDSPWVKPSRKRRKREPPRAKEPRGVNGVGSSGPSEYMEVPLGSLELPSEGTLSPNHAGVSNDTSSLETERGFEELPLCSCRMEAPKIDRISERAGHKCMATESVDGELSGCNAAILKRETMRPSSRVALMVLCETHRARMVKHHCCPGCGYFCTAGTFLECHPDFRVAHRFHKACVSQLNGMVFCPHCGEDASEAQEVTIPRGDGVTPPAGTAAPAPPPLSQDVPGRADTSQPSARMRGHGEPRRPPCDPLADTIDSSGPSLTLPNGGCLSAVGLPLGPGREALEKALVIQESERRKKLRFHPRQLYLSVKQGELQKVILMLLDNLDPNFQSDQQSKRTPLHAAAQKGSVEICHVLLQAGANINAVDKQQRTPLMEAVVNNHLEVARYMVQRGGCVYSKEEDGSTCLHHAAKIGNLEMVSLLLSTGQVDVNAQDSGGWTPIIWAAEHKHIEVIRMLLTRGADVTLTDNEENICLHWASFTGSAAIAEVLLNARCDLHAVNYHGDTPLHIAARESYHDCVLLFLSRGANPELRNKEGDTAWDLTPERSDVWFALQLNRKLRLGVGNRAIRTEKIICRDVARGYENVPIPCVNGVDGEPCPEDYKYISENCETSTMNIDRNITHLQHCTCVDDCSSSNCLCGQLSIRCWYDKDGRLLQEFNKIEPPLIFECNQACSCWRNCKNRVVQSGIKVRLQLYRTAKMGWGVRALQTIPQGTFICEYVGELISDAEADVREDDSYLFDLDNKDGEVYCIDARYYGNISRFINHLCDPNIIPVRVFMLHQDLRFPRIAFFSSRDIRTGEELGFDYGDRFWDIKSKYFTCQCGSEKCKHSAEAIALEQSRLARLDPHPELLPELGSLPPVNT

[3] = target: T1, Histone-lysine N-methyltransferase EHMT1; assay: (§1) Inhibition of recombinant GLP catalytic SET domain (982 to 1266 residues) (unknown origin) expressed in Escherichia coli BL21 (DE3) codon plus RIL assessed as inhibition of methylation activity using biotin-labeled H3 (1 to 25 residues) as substrate and [3H]-SAM after 2 hrs by scintillation proximity assay
[4] = target: T2, Histone-lysine N-methyltransferase EHMT2; assay: as §1, with “G9a” for “GLP”, “(913” for “(982”, “1193” for “1266”

Row | IC50 [3] | IC50 [4] | SMILES | Kd [1] | Kd [2]
1 | 13 nM | 440 nM | COc1cc2nc(N3CCOCC3)nc(NC3CCN(C)CC3)c2cc1OC | 40 nM | 445 nM
2 | 12 nM | 313 nM | COc1cc2nc(N3CCCC3)nc(NC3CCN(C)CC3)c2cc1OC |  | 
3 | > 5000 nM | > 5000 nM | CCOc1cc2c(NC3CCN(C)CC3)nc(N3CCOCC3)nc2cc1OC |  | 
4 | 4 nM |  | COc1cc2nc(N3CCCN(C)CC3)nc(NC3CCN(C)CC3)c2cc1OC |  | 
5 | > 1000 nM | > 5000 nM | CCOc1cc2nc(N3CCOCC3)nc(NC3CCN(C)CC3)c2cc1OC |  | 
6 | > 5000 nM | > 5000 nM | COc1cc2nc(N3CCOCC3)nc(NC3CCN(C)CC3)c2cc1OC(C)C |  | 
7 | 34 nM | 438 nM | COc1cc2nc(C3CCCCC3)nc(NC3CCN(C)CC3)c2cc1OC |  | 
8 | 808 nM | 4070 nM | COc1cc2nc(N3CCOCC3)nc(NC3CCN(C)CC3)c2cc1C |  | 
9 | 44 nM | 756 nM | CCCCCCCNc1nc(NC2CCN(C)CC2)c2cc(OC)c(OC)cc2n1 |  | 
10 | 35 nM | 407 nM | CCCCN(C)c1nc(NC2CCN(C)CC2)c2cc(OC)c(OC)cc2n1 |  | 
11 | 35 nM | 436 nM | CCCCNc1nc(NC2CCN(C)CC2)c2cc(OC)c(OC)cc2n1 |  | 
12 | 63 nM | 341 nM | CCCCCNc1nc(NC2CCN(C)CC2)c2cc(OC)c(OC)cc2n1 |  | 
13 | 16 nM | 190 nM | COc1cc2nc(N3CCCCCC3)nc(NC3CCN(C)CC3)c2cc1OC |  | 
14 | 12 nM | 31 nM | COc1cc2nc(N3CCCCC3)nc(NC3CCN(C)CC3)c2cc1OC |  | 
15 | 29 nM | 1150 nM | COc1cc2c(NC3CCN(C)CC3)nc(N3CCOCC3)nc2cc1C |  | 
16 | > 5000 nM | > 5000 nM | COc1cc2c(NC3CCN(C)CC3)nc(N3CCOCC3)nc2cc1OC(C)C |  | 
17 | 26 nM | 323 nM | CCN1CCC(Nc2nc(N3CCOCC3)nc3cc(OC)c(OC)cc23)CC1 |  | 
18 | 28 nM | 306 nM | CCCCCN(C)c1nc(NC2CCN(C)CC2)c2cc(OC)c(OC)cc2n1 |  | 
19 | 341 nM | 1910 nM | COc1cc2nc(C3CCOCC3)nc(NC3CCN(C)CC3)c2cc1OC |  | 
20 | 15 nM | 262 nM | COc1cc2nc(N3CCOCC3)nc(NC3CCN(C(C)C)CC3)c2cc1OC |  | 
21 | 1230 nM | 3690 nM | COc1cc2nc(N3CCOCC3)nc(NC3CCN(C)CC3)c2cc1F |  | 
22 | 97 nM | 1060 nM | COc1cc2nc(N3CCC(F)(F)CC3)nc(NC3CCN(C)CC3)c2cc1OC |  | 
23 | > 5000 nM | > 5000 nM | COc1cc2c(NC3CCN(C)CC3)nc(N3CCOCC3)nc2cc1F |  | 
24 | 12 nM | 313 nM | COc1cc2nc(N3CCOCC3)nc(NC3CCN(C4CC4)CC3)c2cc1OC |  | 
25 | 11 nM | 224 nM | CCCN1CCC(Nc2nc(N3CCOCC3)nc3cc(OC)c(OC)cc23)CC1 |  | 
26 | 18 nM | 311 nM | CCCCCCN(C)c1nc(NC2CCN(C)CC2)c2cc(OC)c(OC)cc2n1 |  | 

Row | SMILES | IC50 [3] | IC50 [4] | Kd [1] | Kd [2]
27 | CCCCCCNc1nc(NC2CCN(C)CC2)c2cc(OC)c(OC)cc2n1 | 7 nM | 992 nM | 46 nM | 610 nM
